# Measurements taken from US20140004209A1, “AUTOPHAGY INDUCER AND INHIBITOR COMBINATION THERAPY FOR THE TREATMENT OF NEOPLASMS” (GENENTECH, INC., priority 2010, published 2014).
# Entries after “also recorded” stand apart in the source; their conditions may differ. Like-named read-outs stand apart in the source and are kept apart here.
# How the values were obtained:
# [1] = test system: 537MEL melanoma cell line; assay: Autophagy (Acridine Orange) and apoptosis (AnnV/PI) induction with CQ; assay type: cell-based
# Excerpt: (§1) FIGS. 32A-B and 34A-B depict data showing correlation between Autophagy induction and apoptosis induction when each compound is combined with CQ at 24 hrs after the given compound treatment measured by Acridine Orange staining in 537MEL melanoma cell line and SKBR3Breast cancer cell line, respectively. Control was DMSO.
# (§2) FIGS. 33A-G and 35A-G show dose response curve of apoptosis induction in 537MEL melanoma and SKBR3Breast cancer cells, respectively, treated with the indicated compound alone or with 10 μM CQ, measured by Annezin V (AnnV) and Propidium iodide (PI) staining.
# [2] = test system: SKBR3Breast cancer cell line; assay: as above; assay type: cell-based
# Excerpt: as §1, §2
# PC3 cells [3] = assay: Microarray analysis of autophagy gene expression in PC3 cells; assay type: cell-based, human; settings: 1 or 5 μM for 6 or 24 hours, normalized to DMSO
# Description: PC3 cells were induced to express shRNA to indicated Akt isoforms for 72 hours by Doxycycline, RNA was extracted from both Dox treated (Dox+) or untreated control (Dox−) cells. Microarray analysis was carried out using Affymetrix chips. Ratios of the expression levels of each autophagy gene from Dox+ and Dox− samples are shown. Data are mean values from 3 independent experiments.
# RNA was extracted from the cells. Microarray analysis was carried out using Affymetrix chips. Expression levels of each autophagy gene are normalized to the DMSO controls. Data are mean values from 3 independent experiments.
# [4] = Cell death in combination with CQ (FIG. 17); assay type: cell-based
# [5] = test system: PC3 (PTEN-, p53- and Al) cell line; assay: CellTiter-Glo growth inhibition, III-4 and CQ combination; assay type: cell-based, human; settings: 1:25 ratio
# Excerpt: (§3) FIG. 26B depicts the CI (combination index) by using bar graphs for data obtained by CellTiter-Glo assay at day 4 of treatment with 10% serum.
# FIGS. 27A-B depicts data for the PC3 (PTEN-, p53- and Al) cell line.
# [6] = test system: MDA-361.1 (PI2-K mut (E545K), Her2+, HR+ and Luminal) cell line; assay: as above; assay type: cell-based; settings: 1:12.5 ratio
# Excerpt: as §3
# FIGS. 28A-B depicts data for the MDA-361.1 (PI2-K mut (E545K), Her2+, HR+ and Luminal) cell line.
# [7] = test system: MDA-MB-231 (Kras, Braf, p53 mut, Triple- and Basal) cell line; assay: as above; assay type: cell-based
# Excerpt: as §3
# [8] = test system: U87MG (PTEN-, PI3K mut (1391M)) cell line; assay: as above; assay type: cell-based, human; settings: 1:1.5 ratio
# Description: as §3
# FIGS. 30A-B depicts data for the U87MG (PTEN-, PI3K mut (1391M)) cell line.
# multiple cell lines = assay: ED50 of CQ, AKTi and combination by CellTiter-Glo in multiple cell lines; assay type: cell-based; settings: day 4, 10% serum
# Excerpt: as §3
# PC3 cells [9] = assay: Autophagy markers in PC3 cells (EM AVs, GFP-LC3, LC3-II/LC3-I, MDC, AO); assay type: cell-based, human
# Description: Western blot analysis, immunofluorescence, 1HC and TUNEL assay: For Western blot analysis, total protein lysates were subjected to SDS-PAGE and transferred to nitrocellulose. […] Detection and quantification were performed using an Odyssey infrared scanner (LICOR) using the manufacturer's software. For immunofluorescence staining, cells were fixed in 3% paraformaldehyde and permeabilized with 0.01% digitonin in PBS, followed by a rabbit polyclonal anti-LC3 (Abgent) primary antibody detected with a cy3-conjugated anti-rabbit secondary antibody (Jackson Immunoresearch). For IHC, formalin-fixed, paraffin-embedded specimens were collected. 5-μm-thick paraffin-embedded sections were stained using an anti-Ki-67 (MIB-1, DakoCytomation) antibody with the Dako ARK kit (Dako Corporation). Tissues were counterstained with haematoxylin, dehydrated, and mounted. In all cases, antigen retrieval was performed with the Dako Target Retrieval Kit as per manufacturer's instructions. For TUNEL assay, formalin-fixed, paraffin-embedded sections were stained using an in situ cell death detection kit (POD; Roche Diagnostic) according to the manufacturer's instructions.
# Ultrathin sections were stained with uranyl acetate and lead citrate. Numbers of AV were counted on systematically sampled cytoplasmic areas of 4.5 μm^2 (n≧64 per condition). The percent AV area was measured by means of a square mesh grid laid over ≧5 sets of systematically sampled micrographs with each set covering a cytoplasmic area ≧80 μm^2. The average percent of apoptotic nuclei in tumor tissues was calculated from the number of apoptotic nuclei in 3 to 4 sets of 100 systematically counted tumor cell nuclei.
# Multispectral imaging flow cytometry: Cells treated with various agents were stained with Acridine Orange and analyzed by the ImageStream system (Amnis Corporation, Seattle, Wash.) using the IDEAS image analysis program. The DNA AOGreen image and the vacuolar AO Red image were first compensated into separate channels, and then the percentage of apoptotic/anucleate cells (based on AO nuclear morphology and intensity) and vacuolated cells (AO Red+) were quantified. […] AORed Intensity is plotted on the second histogram with an arbitrary gate (R5) drawn to include events with the brightest AO Red intensity.
# PC3 cells [10] = assay: PC3 cell viability and cell death (PI exclusion, annexin V, caspase-3/7); assay type: cell-based, human; settings: 0.5 μM III-5, 10 μM CQ, 0.5% FBS
# Description: Cell viability and cell cycle analysis. Cell number and viability was measured using trypan blue exclusion assay using a Vi-Cell Analyzer (Beckman Coulter), or labeled with 1 μg/ml PI in PBS/1% BSA followed by cytofluorometric analysis with a fluorescence-activated cell sorter (FACS) (Becton Dickinson). FITC-conjugated Annexin V was used for the assessment of phosphatidylserine exposure by FACS analysis. Caspase activation was analyzed using a Caspase-Glo 3/7 Assay kit (Promega). For cell cycle analysis, cells were fixed with drop-wise addition of chilled 70% ethanol, washed with PBS and resuspended in staining solution containing 50 μg/ml PI and 60 units of RNAse A. DNA content was analyzed by flow cytometry using the FlowJo and ModFit software (Becton Dickinson).
# class I PI3Ks and mTOR = settings: cited from earlier work
# class III PI3K = class III PI3K (Homo sapiens, UniProt Q8NEB9); settings: cited from earlier work
# [11] = 24 hrs, Acridine Orange staining
# Sequence of class III PI3K (Q8NEB9 whole entry): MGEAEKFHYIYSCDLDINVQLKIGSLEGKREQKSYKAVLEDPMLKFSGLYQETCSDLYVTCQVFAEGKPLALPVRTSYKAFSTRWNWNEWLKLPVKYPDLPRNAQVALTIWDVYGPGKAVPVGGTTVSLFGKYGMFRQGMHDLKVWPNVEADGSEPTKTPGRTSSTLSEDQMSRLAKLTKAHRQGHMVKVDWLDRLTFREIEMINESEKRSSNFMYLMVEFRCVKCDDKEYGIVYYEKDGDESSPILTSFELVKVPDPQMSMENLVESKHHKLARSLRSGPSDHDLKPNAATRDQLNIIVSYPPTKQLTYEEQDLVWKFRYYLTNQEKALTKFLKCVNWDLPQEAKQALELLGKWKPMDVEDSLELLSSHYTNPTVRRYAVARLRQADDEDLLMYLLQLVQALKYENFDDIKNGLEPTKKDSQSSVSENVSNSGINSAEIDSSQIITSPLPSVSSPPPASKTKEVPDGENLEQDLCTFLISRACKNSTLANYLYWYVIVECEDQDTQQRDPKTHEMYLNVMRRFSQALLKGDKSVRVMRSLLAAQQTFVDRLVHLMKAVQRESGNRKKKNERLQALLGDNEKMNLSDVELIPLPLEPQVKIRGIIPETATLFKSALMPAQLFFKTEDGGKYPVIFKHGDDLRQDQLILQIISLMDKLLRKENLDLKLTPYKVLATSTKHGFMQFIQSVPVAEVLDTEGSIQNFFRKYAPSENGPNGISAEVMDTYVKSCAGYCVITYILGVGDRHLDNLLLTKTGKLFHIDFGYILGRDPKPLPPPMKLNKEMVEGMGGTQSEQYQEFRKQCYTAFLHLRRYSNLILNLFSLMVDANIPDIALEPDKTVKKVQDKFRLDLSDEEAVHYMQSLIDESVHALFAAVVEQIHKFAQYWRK
compound,measurement,setting,value
"O=C(NOC[C@H](O)CO)c1ccc(F)c(F)c1Nc1ccc(I)cc1F [VII, (R)—N-(2,3-dihydroxypropoxy)-3,4-difluoro-2-(2-fluoro-4-iodophenylamino)benzamide]",apoptosis induction when combined with CQ,"[1]; 10 μM CQ, AnnV and PI staining",no synergistic apoptosis induction is shown when combined with CQ; also recorded: CQ does not induce apoptosis in cancer cells
same,autophagy induction,[1]; [11],does not induce an increase in autophagy
same,apoptosis induction when combined with CQ,"[2]; 10 μM CQ, AnnV and PI staining",no synergistic apoptosis induction is shown when combined with CQ; also recorded: CQ does not induce apoptosis in cancer cells
same,autophagy induction,[2]; [11],does not induce an increase in autophagy
"CC(C)NC[C@@H](C(=O)N1CCN(c2ncnc3c2[C@H](C)C[C@H]3O)CC1)c1ccc(Cl)cc1 [III-4, (S)-2-(4-chlorophenyl)-1-(4-((5R,7R)-7-hydroxy-5-methyl-6,7-dihydro-5H-cyclopenta[d]pyrimidin-4-yl)piperazin-1-yl)-3-(isopropylamino)propan-1-one]",autophagy gene expression,PC3 cells [3],induce autophagy gene expression
same,interaction with CQ on cell death,[4],synergize with CQ to accelerate cell death
same,"growth inhibition, III-4 and CQ combination vs single agents",[5],the combination inhibits growth in the cell line at lower concentrations of III-4 than either III-4 alone or CQ alone
same,"growth inhibition, III-4 and CQ combination vs single agents",[6],the combination inhibits growth in the cell line at lower concentrations of III-4 than either III-4 alone or CQ alone
same,"growth inhibition, III-4 and CQ combination vs single agents",[7],the combination inhibits growth in the cell line at lower concentrations of III-4 than either III-4 alone or CQ alone
same,"growth inhibition, III-4 and CQ combination vs single agents",[8],the combination inhibits growth in the cell line at lower concentrations of III-4 than either III-4 alone or CQ alone
same,ED50 of combination with CQ vs single agents,multiple cell lines,significantly lowers the ED50 for both the AKTi and CQ
Oc1cccc(-c2nc(N3CCOCC3)c3oc4ncccc4c3n2)c1 [III-5],"induction of AV accumulation / autophagy, agent alone",PC3 cells [9],potent at inducing the accumulation of AVs
same,"MDC+ vacuoles, III-5 in combination with CQ","PC3 cells [9]; 0.5 μM III-5, 10 μM CQ, 48 h",CQ dramatically increased the size and number of MDC+ vacuoles
same,"induction of AV accumulation / autophagy, agent alone",PC3 cells [9]; listed as PI-103,induced overt autophagy
same,"cell death, III-5 (PI-103) in combination with CQ",PC3 cells [10],CQ accelerated cell death in combination with III-5; also recorded: combination with CQ accelerated the death of cells
same,"cell death, III-5 (PI-103) in combination with CQ",PC3 cells [10]; listed as PI-103,significantly accelerated death rate
same,inhibition of the class I PI3Ks and mTOR,class I PI3Ks and mTOR,nanomolar concentrations
same,more potent on class I than class III PI3K,class III PI3K,"1,000 ×"
same,less potent on the class III PI3K,class III PI3K; relative to class I PI3Ks and mTOR,"> 1,000 fold"
